Assay results reported in patent EP4101830A1, “NOVEL DIARYLIODONIUM SALT MIXTURES AS LOW MOLECULAR WEIGHT PHOTOINITIATORS WITH MINIMIZED CRYSTALLIZATION BEHAVIOR AND ELEVATED SOLUBILITY” (FEW Chemicals GmbH, priority 2021, dated 2022).
Structures can show the parent of a compound that is named as a salt.

How the values were obtained:
[1] = Solubility in nonpolar solvents (MEK/dowanol 1:1); format: physicochemical; settings: measured in MEK/dowanol 1:1
Excerpt: Thus, efficacy of photoinitiation, when given by radicals per mass, is higher for low molecular weight mixtures of the embodiment. Furthermore, the solubility in nonpolar solvents (such as ketones, ethers, esters) is improved.

[2] = Solubility of photoinitiator in sol-gel coating and layer (visual); format: physicochemical; settings: sol-gel coating on PET foil; result in words
Protocol: A sol-gel coating solution consisting of 15% TEOS, 5% epoxy-modified silanes, 75% organic solvents, and 5% water was prepared according to protocols known (R.B. Figueira et al.; Journal of Coatings Technology and Research 2015, 12, 1-35). To 10 g of this coating solution were added 0.05 g of photoinitiator test compounds (see Table 5/example 7), followed by 1 hour of stirring at room temperature. This solution was applied to a PET foil at a wet thickness of 30 µm by a doctor blade device. This material was illuminated at 254 nm for 2 min or for 5 min (UV-Crosslinker device; UVP). The abrasion resistance (500 cycles) was determined with a standard method (taber-abraser) and the decrease in gloss was measured. […] TABLE 5 / Example 7

SMILES: CC(C)(C)c1ccc([I+]c2ccc(C(C)(C)C)cc2)cc1 [comparative iodonium salt 1, bis[4-(1,1-dimethylethyl)phenyl]-iodonium tetraphenylborate]
- solubility [1]: 149 mg/mL

SMILES: CC(C)(C)c1ccc([I+]c2ccc(C(C)(C)C)cc2)cc1.FC(F)(F)C([O][Al-]([O]C(C(F)(F)F)(C(F)(F)F)C(F)(F)F)([O]C(C(F)(F)F)(C(F)(F)F)C(F)(F)F)[O]C(C(F)(F)F)(C(F)(F)F)C(F)(F)F)(C(F)(F)F)C(F)(F)F [bis-(4-tert.-butyl-phenyl)-iodonium tetrakis(perfluoro-tert.-butoxy)aluminate]
- solubility in the coating and layer [2]: visible precipitates and spots in the coat
